Ends that are not written are not given here.
Assays:
[1] = target: purified HLA molecules (corresponding predicted allele); experiment: MHC peptide-binding assay, summary over alleles; design: species or system human
[2] = system: PBMC of healthy adult blood donors from Colombo, Sri Lanka; experiment: Ex vivo IFNγ ELISPOT, HLA-matched PBMC of Sri Lankan blood donors; assay type: cell-based, human; design: Total Response per epitope: unit not given here; conditions: for # donors responded: number of donors responding to the epitope; for T cell response [SFC]: ex vivo IFNγ SFC/10^6 PBMC; for # of responders: responding donors, HLA allele(s)
[3] = restricting HLA allele and serotype as given
[4] = total over responding donors, restricting HLA allele and serotype as given
[5] = IFNγ ELISPOT response summed over responding donors, per epitope
[6] = HLA-matched PBMC, proteome-wide screen
[7] = HLA allele, supertype and serotype
[8] = summed IFNγ ELISPOT response per epitope, HLA allele and serotype as given

CC[C@H](C)[C@H](NC(=O)[C@@H]1CCCN1C(=O)CNC(=O)[C@@H](NC(=O)[C@H](C)N)[C@@H](C)O)C(=O)N[C@@H](CC(C)C)C(=O)N[C@H](C(=O)N[C@@H](CC(C)C)C(=O)N[C@@H](Cc1c[nH]c2ccccc12)C(=O)O)[C@@H](C)O
IC50 ([1]; allele B*5801): 0.013 µM
# donors responded [2, 3]: 2
T cell response [SFC] ([2]; per epitope): 938 SFC
# of responders [2]: 2
Total Response per epitope [2, 4]: 938.3

CC[C@H](C)[C@H](NC(=O)[C@@H]1CCCN1C(=O)CNC(=O)[C@@H](NC(=O)[C@H](C)N)[C@@H](C)O)C(=O)N[C@@H](CO)C(=O)N[C@H](C(=O)N[C@@H](CC(C)C)C(=O)N[C@@H](Cc1c[nH]c2ccccc12)C(=O)O)[C@@H](C)O
IC50 ([1]; allele B*5801): 0.001 µM
# donors responded [2, 3]: 2
T cell response [SFC] ([2]; per epitope): 236 SFC
# of responders [2]: 2
Total Response per epitope [2, 4]: 235.5

CC(C)C[C@H](NC(=O)[C@@H](NC(=O)[C@H](Cc1c[nH]c2ccccc12)NC(=O)[C@H](C)NC(=O)[C@H](CO)NC(=O)[C@H](C)NC(=O)[C@@H]1CCCN1C(=O)[C@@H](N)Cc1c[nH]cn1)[C@@H](C)O)C(=O)N[C@@H](Cc1ccc(O)cc1)C(=O)O
IC50 ([1]; allele B*3501): 0.006 µM
# donors responded [2, 3]: 3
Total Response per epitope [2, 4]: 281.7

CC[C@H](C)[C@H](N)C(=O)N[C@@H](CS)C(=O)N[C@@H](CO)C(=O)N[C@@H](C)C(=O)N[C@H](C(=O)N1CCC[C@H]1C(=O)N[C@H](C(=O)N[C@@H](Cc1c[nH]cn1)C(=O)N[C@@H](Cc1c[nH]c2ccccc12)C(=O)O)C(C)C)C(C)C
IC50 ([1]; allele B*5801): 0.006 µM
# donors responded [2, 3]: 1
Total Response per epitope [2, 4]: 115.0

CC[C@H](C)[C@H](NC(=O)[C@H](CCC(N)=O)NC(=O)[C@@H](N)CCCCN)C(=O)N[C@@H](C)C(=O)N[C@@H](CC(N)=O)C(=O)N[C@@H](CCC(=O)O)C(=O)N[C@@H](CC(C)C)C(=O)N[C@@H](CC(N)=O)C(=O)N[C@@H](Cc1ccc(O)cc1)C(=O)O
IC50 ([1]; allele B*1501): 0.009 µM
# donors responded [2, 3]: 1
Total Response per epitope [2, 4]: 26.7

CSCC[C@H](NC(=O)[C@@H](NC(=O)[C@H](Cc1c[nH]cn1)NC(=O)[C@H](Cc1ccccc1)NC(=O)[C@@H](NC(=O)CNC(=O)[C@H](CCC(=O)O)NC(=O)[C@@H](N)CCSC)C(C)C)[C@@H](C)O)C(=O)N[C@@H](Cc1c[nH]c2ccccc12)C(=O)O
IC50 ([1]; allele B*4403): 0.003 µM

CC[C@H](C)[C@H](NC(=O)CNC(=O)[C@H](CCC(=O)O)NC(=O)CNC(=O)[C@H](CCC(=O)O)NC(=O)[C@H](CCSC)NC(=O)[C@H](CCC(N)=O)NC(=O)[C@@H](N)CCCNC(=N)N)C(=O)N[C@@H](Cc1ccccc1)C(=O)O
IC50 ([1]; allele B*1501): 0.006 µM
Total Response per epitope [2, 5]: 108.3
# donors responded [2, 6]: 1

CSCC[C@H](NC(=O)[C@H](CCC(N)=O)NC(=O)[C@@H](N)CCCNC(=N)N)C(=O)N[C@@H](CCC(=O)O)C(=O)NCC(=O)N[C@@H](CCC(=O)O)C(=O)NCC(=O)N[C@H](C(=O)N[C@@H](CC(C)C)C(=O)O)C(C)C
IC50 ([1]; allele B*1501): 0.019 µM
Total Response per epitope [2, 5]: 56.7
# donors responded [2, 6]: 1

CSCC[C@H](NC(=O)[C@H](CCCCN)NC(=O)[C@H](CC(C)C)NC(=O)[C@@H](NC(=O)[C@@H](N)CCCNC(=N)N)C(C)C)C(=O)N[C@H](C(=O)N[C@@H](CCC(=O)O)C(=O)N1CCC[C@H]1C(=O)N[C@@H](Cc1c[nH]c2ccccc12)C(=O)O)C(C)C
IC50 ([1]; allele B*5801): 0.001 µM
Total Response per epitope [2, 5]: 150.0
# donors responded [2, 6]: 1

CC[C@H](C)[C@H](NC(=O)CNC(=O)[C@H](CCC(=O)O)NC(=O)[C@@H]1CCCN1C(=O)[C@@H](N)[C@@H](C)O)C(=O)N[C@H](C(=O)N1CCC[C@H]1C(=O)N[C@@H](CO)C(=O)N[C@@H](CCSC)C(=O)O)[C@@H](C)CC
IC50 ([1]; allele B*3501): 0.008 µM
Total Response per epitope [2, 5]: 2716.7
# donors responded [2, 6]: 5
T cell response [SFC] ([2]; per epitope): 2717 SFC
# of responders [2]: 5

CC(C)C[C@H](NC(=O)[C@H](CCC(N)=O)NC(=O)[C@@H](NC(=O)[C@H](Cc1ccc(O)cc1)NC(=O)[C@@H](N)C(C)C)[C@@H](C)O)C(=O)N[C@@H](CS)C(=O)N[C@@H](CC(=O)O)C(=O)N[C@@H](Cc1c[nH]cn1)C(=O)N[C@@H](CCCNC(=N)N)C(=O)O
IC50 ([1]; allele A*3301): 1.9 µM
# donors responded [2, 7]: 1
Total Response per epitope [2, 8]: 35.0

CC(C)[C@H](NC(=O)[C@H](CCC(=O)O)NC(=O)[C@H](Cc1ccc(O)cc1)NC(=O)[C@H](CO)NC(=O)CNC(=O)[C@H](Cc1c[nH]cn1)NC(=O)[C@H](Cc1ccc(O)cc1)NC(=O)[C@H](C)NC(=O)[C@@H](N)Cc1c[nH]c2ccccc12)C(=O)O
IC50 ([1]; allele B*5101): 0.011 µM
# donors responded [2, 7]: 1
Total Response per epitope [2, 8]: 25.0

ATGPITTLW
IC50 ([1]; allele B*5801): 0.005 µM
# donors responded [2, 3]: 1
T cell response [SFC] ([2]; per epitope): 505 SFC
# of responders [2]: 1
Total Response per epitope [2, 4]: 505.0

DPASIAARGY
IC50 ([1]; allele B*3501): 5.62 µM
# donors responded [2, 3]: 9
T cell response [SFC] ([2]; per epitope): 2383 SFC
# of responders [2]: 9
Total Response per epitope [2, 4]: 2383.3

GEGLHKLGY
IC50 ([1]; allele B*4403): 0.281 µM
# donors responded [2, 3]: 2
Total Response per epitope [2, 4]: 413.3

IETTILDVDL
Total Response per epitope [2, 5]: 1413.3
# donors responded [2, 6]: 2

IGIGVLLTW
# donors responded [2, 3]: 1
Total Response per epitope [2, 4]: 378.3

KEGVFHTMW
# donors responded [2, 3]: 1
Total Response per epitope [2, 4]: 178.3

KQISNELNY
# donors responded [2, 3]: 1
Total Response per epitope [2, 4]: 26.7

KSGAIKVLK
# donors responded [2, 3]: 1
Total Response per epitope [2, 4]: 48.3

KVLNPYMPSV
Total Response per epitope [2, 5]: 63.3
# donors responded [2, 6]: 1

KVRKDIQQW
IC50 ([1]; allele B*5701): 0.015 µM
Total Response per epitope [2, 5]: 38.3
# donors responded [2, 6]: 1

LATGPVLTLW
# donors responded [2, 3]: 1
T cell response [SFC] ([2]; per epitope): 745 SFC
# of responders [2]: 1
Total Response per epitope [2, 4]: 745.0

LMMILPAAL
Total Response per epitope [2, 5]: 46.7
# donors responded [2, 6]: 1

LPVWLAHKVA
Total Response per epitope [2, 5]: 23.3
# donors responded [2, 6]: 1
T cell response [SFC] ([2]; per epitope): 23 SFC
# of responders [2]: 1

LPVWLAYKVA
IC50 ([1]; allele B*3501): 5.1 µM
Total Response per epitope [2, 5]: 2426.7
# donors responded [2, 6]: 7
T cell response [SFC] ([2]; per epitope): 2427 SFC
# of responders [2]: 7

LWEGSPGKF
IC50 ([1]; allele A*2402): 6.17 µM
Total Response per epitope [2, 5]: 25.0
# donors responded [2, 6]: 1

MALKDFKEF
IC50 ([1]; allele B*3501): 0.077 µM

MALSIVSLF
IC50 ([1]; allele B*5101): 0.605 µM
# donors responded [2, 3]: 1
Total Response per epitope [2, 4]: 48.3

MAVGMVSIL
IC50 ([1]; allele B*3501): 0.01 µM
Total Response per epitope [2, 5]: 361.7
# donors responded [2, 6]: 5

MEITAEWLW
IC50 ([1]; allele B*5801): 0.005 µM
Total Response per epitope [2, 5]: 583.3
# donors responded [2, 6]: 1
T cell response [SFC] ([2]; per epitope): 583 SFC
# of responders [2]: 1

MLVTPSMTM
IC50 ([1]; allele B*3501): 3.85 µM
Total Response per epitope [2, 5]: 1735.0
# donors responded [2, 6]: 8
T cell response [SFC] ([2]; per epitope): 1735 SFC
# of responders [2]: 8

MMATIGIAL [MMATIGIAL]
IC50 ([1]; allele B*3501): 1.12 µM
Total Response per epitope [2, 5]: 908.3
# donors responded [2, 6]: 6

MPVTVASAAQ
Total Response per epitope [2, 5]: 51.7
# donors responded [2, 6]: 1

MVSRLLLNR
Total Response per epitope [2, 5]: 28.3
# donors responded [2, 6]: 1

NPEIEDDIF
IC50 ([1]; allele B*3501): 0.518 µM
Total Response per epitope [2, 5]: 3390.0
# donors responded [2, 6]: 10
T cell response [SFC] ([2]; per epitope): 3390 SFC
# of responders [2]: 10

NPNMIDKTPV
Total Response per epitope [2, 5]: 376.7
# donors responded [2, 6]: 2

NPWMEDKTPV
Total Response per epitope [2, 5]: 191.7
# donors responded [2, 6]: 2

QYIFTGQPL
IC50 ([1]; allele A*2402): 0.271 µM
Total Response per epitope [2, 5]: 138.3
# donors responded [2, 6]: 1

RAAVEDEEF
IC50 ([1]; allele B*5801): 0.866 µM
Total Response per epitope [2, 5]: 381.7
# donors responded [2, 6]: 1

RASFIEVKTC
Total Response per epitope [2, 5]: 290.0
# donors responded [2, 6]: 2

REDLWCGSL
Total Response per epitope [2, 5]: 96.7
# donors responded [2, 6]: 1

REIPERSWNT
Total Response per epitope [2, 5]: 1278.3
# donors responded [2, 6]: 2

REWCFTGERN
Total Response per epitope [2, 5]: 1345.0
# donors responded [2, 6]: 2

RFLEFEALGF
Total Response per epitope [2, 5]: 181.7
# donors responded [2, 6]: 1

RPGYHTQTA
Total Response per epitope [2, 5]: 501.7
# donors responded [2, 6]: 2

SEMAEALKGM
Total Response per epitope [2, 5]: 30.0
# donors responded [2, 6]: 1

SPKRLATAIA
Total Response per epitope [2, 5]: 68.3
# donors responded [2, 6]: 1

TLMAAILAY
# donors responded [2, 3]: 1
Total Response per epitope [2, 4]: 43.3

TLMAMDLGEL
Total Response per epitope [2, 5]: 823.3
# donors responded [2, 6]: 1

TPFGIIPAL
# of responders [2]: 1

TPPGSRDPF
IC50 ([1]; allele B*3501): 0.161 µM
# donors responded [2, 7]: 7
Total Response per epitope [2, 8]: 1416.7

TTKRDLGMSK
# donors responded [2, 7]: 1
Total Response per epitope [2, 8]: 35.0

VATTFVTPM
IC50 ([1]; allele B*3501): 0.205 µM
# donors responded [2, 7]: 8
T cell response [SFC] ([2]; per epitope): 2777 SFC
# of responders [2]: 8
Total Response per epitope [2, 8]: 2776.7

VPLLAIGCY
IC50 ([1]; allele B*3501): 0.168 µM
# donors responded [2, 7]: 7
T cell response [SFC] ([2]; per epitope): 1520 SFC
# of responders [2]: 7
Total Response per epitope [2, 8]: 1520.0

VPLLAMGCY
# donors responded [2, 7]: 1
T cell response [SFC] ([2]; per epitope): 1083 SFC
# of responders [2]: 1
Total Response per epitope [2, 8]: 1083.3

WHYDQDHPY
IC50 ([1]; allele B*3501): 7.6 µM

YAQMWQLMYF
Total Response per epitope [2, 5]: 135.0
# donors responded [2, 6]: 1

YENLKYSVI
IC50 ([1]; allele B*4402): 0.09 µM
# donors responded [2, 7]: 1
Total Response per epitope [2, 8]: 381.7

YTPEGIIPTL
# donors responded [2, 7]: 1
T cell response [SFC] ([2]; per epitope): 872 SFC
# of responders [2]: 1
Total Response per epitope [2, 8]: 871.7

Source: patent US10308689B2, “Dengue virus (DV) polypeptide sequences, T cell epitopes and methods and uses thereof” (LA JOLLA INSTITUTE FOR ALLERGY AND IMMUNOLOGY, priority 2010, dated 2019)
